In patent publication US6479554B2, “Immunotherapeutic agents” (Celgene Corporation, priority 1996, dated 2002):

melting point [°C] | Compound
74 to 77 | CCOc1cc(C(=CC#N)c2ccccc2)ccc1OC [Example 8, 3-(3-Ethoxy-4-methoxyphenyl)-3-phenylacrylonitrile]
189 to 191 | COc1ccc(C(=O)c2ccc(N)cc2)cc1OC [Example 16, 3,4-Dimethoxy-4′-aminobenzophenone]
88 to 90 | COc1cc(OC)cc(C(=CC#N)c2ccc(OC)c(OC)c2)c1 [Example 10, 3-(3,4-Dimethoxyphenyl)-3-(3′,5′-dimethoxyphenyl)-acrylonitrile]
121 to 123 | COc1ccc(C(=CC#N)c2ccc3ccccc3c2)cc1OC [Example 20, 3-(3,4-Dimethoxyphenyl)-3-naphth-2-ylacrylonitrile]
65.5 to 68 | CC=C(c1ccc(OC)c(OC)c1)c1ccc(OC)c(OCC)c1 [Example 6, 1-(3,4-Dimethoxyphenyl)-1-(3-ethoxy-4-methoxyphenyl)prop-1-ene]
72 to 73 | CC=C(c1ccccc1)c1ccc(OC)c(OC)c1 [Example 5, 1-(3,4-Dimethoxyphenyl)-1-phenylprop-1-ene]
128 to 129 | COc1ccc(C(=O)c2c(OC)cccc2OC)cc1OC [Example 30, 2′,6′,3,4-Tetramethoxybenzophenone]
83.5 to 86.5 | COc1ccc(C(=CC#N)c2ccc(C)cc2)cc1OC [Example 17, 3-(3,4-Dimethoxyphenyl)-3-(4-methylphenyl)acrylonitrile]
100 to 102 | COc1ccc(C(=CC#N)c2ccc(F)cc2)cc1OC [Example 19, 3-(3,4-Dimethoxyphenyl)-3-(4′-fluorophenyl)acrylonitrile]
132 to 134 | COc1ccc(C(=CC#N)c2ccc(-c3ccccc3)cc2)cc1OC [Example 18, 3-(4-Biphenylyl)-3-(3,4-dimethoxyphenyl)acrylonitrile]
157 to 175 | COc1ccc(C(=O)c2cccc(N)c2)cc1OC [Example 13, 3,4-Dimethoxy-3′-aminobenzophenone]
121 to 123 | COc1ccc(C(=CC#N)c2ccc3c(c2)OCO3)cc1OC [Example 21, 3-(3,4-Dimethoxyphenyl)-3-(3,4-methylenedioxyphenyl)acrylonitrile]
117.5 to 120 | COc1ccc(C(=CC#N)c2ccc([N+](=O)[O-])cc2)cc1OC [Example 14, 3-(3,4-Dimethoxyphenyl)-3-(4-nitrophenyl)acrylonitrile]
116 to 125 | COc1ccc(C(=CC#N)c2ccncc2)cc1OC [Example 22, 3-(3,4-Dimethoxyphenyl)-3-pyridin-4-ylacrylonitrile]
117.5 to 120 | COc1ccc(C(=CC#N)c2cccc([N+](=O)[O-])c2)cc1OC [Example 11, 3-(3,4-Dimethoxyphenyl)-3-(3′-nitrophenyl)acrylonitrile]
78 to 82 | CCc1ccc(C(=CC#N)c2ccc(OC)c(OC)c2)cc1CC [Example 26, 3-(3,4-Diethylphenyl)-3-(3,4-dimethoxyphenyl)acrylonitrile]
134.5 to 135.5 | COc1ccc(C(=CC#N)c2ccccn2)cc1OC [Example 23, 3-(3,4-Dimethoxyphenyl)-3-pyridin-2-ylacrylonitrile]
78 to 82 | COc1ccc(C(=CC#N)c2ccco2)cc1OC [Example 24, 3-(3,4-Dimethoxyphenyl)-3-(2-furyl)acrylonitrile]
